Experimental data: patent US10028966B2 (Avalyn Pharma Inc., priority 2014, dated 2018)
Read-outs that look alike come from different tables or passages of the source.

Assays:
[1] = tested on: LPS-induced pulmonary inflammasome model; experiment: LPS-induced pulmonary inflammasome model (BAL cell counts, BAL IL-1β); type: in vivo, Sprague Dawley rats; conditions: for BAL IL-1β, average / BAL cells (%), EO (eosinophil), average / BAL cells (%), LM (lymphocytes), average / BAL cells (%), NP (neutrophils), average / BAL number cells, EO (eosinophil), average / BAL number cells, LM (lymphocytes), average / BAL number cells, NP (neutrophils), average: 24 hours, n = 4; for LPS-induced IL-1β (%): relative to LPS + IT saline = 100
Description: To compare the efficacy of intratracheal, direct-lung aerosol administration and oral gavage, the LPS-induced pulmonary inflammasome model was performed. Briefly, Sprague Dawley rats (200-250 grams) were administered a single dose of LPS by the intratracheal route (IT) using a intubation aerosol delivery device. All IT doses were delivered just above the first pulmonary bifurcation. Sham animals were treated with saline. […] Lungs were lavaged and collected bronchial lavage fluid (BAL) was assessed for total cell count, neutrophils, macrophage, eosinophils and lymphocytes. BAL was also assessed for IL-1b.

[2] = Pharmacokinetics and lung-tissue distribution after oral gavage or intratracheal aerosol; type: in vivo, Sprague-Dawley rats; conditions: for half-life: po, 70 mg/kg
Description: Solutions were vortexed until all crystals dissolved. […] Plasma samples were taken at pre-dose, 0.08, 0.16, 0.25, 0.5, 0.75, 1.0, 1.5, 2, 4, and 6 hours post dosing. For lung tissue samples, eight additional rats were also dosed 70 mg/kg by the oral route. Lungs were taken at pre-dose 0.08, 0.5, 2, and 4 hours post dosing. Materials were extracted and pirfenidone quantitated as μg/mL plasma and μg/gram lung tissue. […]

2E1 = biological target: T1, 2E1 (Homo sapiens, UniProt P05181); conditions: hepatic microsomes; cited from earlier work
T1 construct: In vitro metabolism studies with hepatic microsomes; from tissue; host or cells: hepatic microsomes

[3] = cited from earlier work; for AUC (0-18 hrs) / Cmax: human
[4] = Process temperature development study (60°C dissolution, cooling to 25°C); type: physicochemical
Description: […]. […] The final volume of each formulation was 5 mL. […] Each sample was mixed thoroughly and agitated overnight at 60° C. Rapid cooling and step-wise cooling from 60° C. to 25° C. was performed. HPLC analysis was performed on samples taken after overnight incubation and after cooling to 25° C. Prior to HPLC analysis, formulations were filtered via syringe through a 0.45 μm PVDF filter.

[5] = 0.5 mg/kg intratracheal, single dose with LPS, BAL after 24 hours
[6] = 30 mg/kg oral gavage 2 hours before LPS (60-fold larger dose)
[7] = LPS + PO pirfenidone 30.0 mg/kg
[8] = oral 801 mg fasted-state, plasma
[9] = 0% EtOH, 8% PG, 0% PS80, 92% phosphate buffer (5 mM), pH 6.6
[10] = 0% EtOH, 8% PG, 0.04% PS80, 92% phosphate buffer (5 mM), pH 6.7
[11] = 4% EtOH, 0% PG, 0.04% PS80, 96% phosphate buffer (5 mM), pH 6.6
[12] = 4% EtOH, 8% PG, 0% PS80, 88% phosphate buffer (5 mM), pH 6.7
[13] = 4% EtOH, 8% PG, 0.04% PS80, 88% phosphate buffer (5 mM), pH 6.7

T1 sequence (P05181 whole entry): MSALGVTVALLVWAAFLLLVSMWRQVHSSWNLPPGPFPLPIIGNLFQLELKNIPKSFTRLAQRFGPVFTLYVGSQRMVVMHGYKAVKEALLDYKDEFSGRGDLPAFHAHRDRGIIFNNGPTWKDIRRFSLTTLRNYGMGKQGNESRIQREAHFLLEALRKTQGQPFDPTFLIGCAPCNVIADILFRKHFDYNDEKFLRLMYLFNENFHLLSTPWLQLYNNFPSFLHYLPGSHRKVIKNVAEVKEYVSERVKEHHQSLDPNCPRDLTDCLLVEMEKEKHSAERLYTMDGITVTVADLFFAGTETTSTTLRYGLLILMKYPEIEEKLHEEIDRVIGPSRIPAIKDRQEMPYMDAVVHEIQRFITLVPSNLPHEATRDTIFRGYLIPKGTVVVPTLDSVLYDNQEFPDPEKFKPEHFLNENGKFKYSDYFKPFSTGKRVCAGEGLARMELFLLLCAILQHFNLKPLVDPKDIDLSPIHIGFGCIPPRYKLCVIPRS

Cc1ccc(=O)n(-c2ccccc2)c1 [pirfenidone, 5-methyl-1-phenyl-2-(1H)-pyridone]
lung tissue Cmax (estimated) ([1]; 0.5 mg/kg IT): ~83 mcg/gram
LPS-induced inflammatory cell infiltration (BAL) [1, 5]: negated
reduction of LPS-induced BAL IL-1β levels [1, 5]: 62%
effect on LPS-induced BAL IL-1β levels [1, 6]: no effect
effect on LPS-induced inflammatory cell infiltration (BAL) [1, 6]: no effect
BAL IL-1β, average ([1]; LPS + IT pirfenidone 0.5 mg/kg): 36.2 pg/mL
BAL cells (%), EO (eosinophil), average ([1]; LPS + IT pirfenidone 0.5 mg/kg): 0.7%
BAL cells (%), LM (lymphocytes), average ([1]; LPS + IT pirfenidone 0.5 mg/kg): 1.0%
BAL cells (%), NP (neutrophils), average ([1]; LPS + IT pirfenidone 0.5 mg/kg): 13.0%
BAL number cells, EO (eosinophil), average ([1]; LPS + IT pirfenidone 0.5 mg/kg): 0.0 1 × 10e5
BAL number cells, LM (lymphocytes), average ([1]; LPS + IT pirfenidone 0.5 mg/kg): 0.1 1 × 10e5
BAL number cells, NP (neutrophils), average ([1]; LPS + IT pirfenidone 0.5 mg/kg): 0.7 1 × 10e5
LPS-induced IL-1β (%) ([1]; LPS + IT pirfenidone 0.5 mg/kg): 38%
BAL IL-1β, average [1, 7]: 105.9 pg/mL
BAL cells (%), EO (eosinophil), average [1, 7]: 0.6%
BAL cells (%), LM (lymphocytes), average [1, 7]: 0.9%
BAL cells (%), NP (neutrophils), average [1, 7]: 36.4%
BAL number cells, EO (eosinophil), average [1, 7]: 0.3 1 × 10e5
BAL number cells, LM (lymphocytes), average [1, 7]: 0.3 1 × 10e5
BAL number cells, NP (neutrophils), average [1, 7]: 13.2 1 × 10e5
LPS-induced IL-1β (%) [1, 7]: 113%
half-life ([2]; Sprague-Dawley, rat, lung, read-out: Lung T1/2 α (only α observed)): 0.75 h
half-life ([2]; Sprague-Dawley, rat, plasma, read-out: Plasma T1/2): 0.5 h
Cmax ([2]; Sprague-Dawley, rat, plasma, oral 70 mg/kg): 8100 ng/mL
AUC(0-t) ([2]; Sprague-Dawley, rat, plasma, oral 70 mg/kg, read-out: Plasma AUC0-6 hrs): 13500 ng·h/mL
Lung Cmax ([2]; oral 70 mg/kg): 3.6 µg/g
Lung TOE, time of exposure over 1 μg/g lung tissue ([2]; oral 70 mg/kg): 89 min
contribution to pirfenidone metabolism (2E1): less than 13%
T1/2 beta ([3]; aerosol 47 mg RDD, lung tissue, from plasma T1/2, Rubino et al., 2009 fasted-state): 2.5 h
T1/2 beta ([3]; aerosol 47 mg RDD, plasma, Rubino et al., 2009 fasted-state): 2.5 h
AUC (0-18 hrs) [3, 8]: 67700 ng·h/mL
Cmax [3, 8]: 14.2 microgram/mL
AUC (0-18 hrs) ([3]; oral 801 mg fed-state, plasma): 58900 ng·h/mL
Cmax ([3]; oral 801 mg fed-state, plasma): 7.9 microgram/mL
T1/2 beta ([3]; oral 801 mg fasted-state, lung tissue, from plasma T1/2, Rubino et al., 2009): 2.5 h
T1/2 beta ([3]; oral 801 mg fasted-state, plasma, Rubino et al., 2009): 2.5 h
T1/2 beta ([3]; oral 801 mg fed-state, lung tissue, from plasma T1/2, Rubino et al., 2009): 2.4 h
T1/2 beta ([3]; oral 801 mg fed-state, plasma, Rubino et al., 2009): 2.4 h
Observations: dissolution after overnight at 60° C. [4, 9]: Fully dissolved after overnight at
Observations: time stable at 25° C. before re-crystallization [4, 9]: 60 °C Stable at 25 °C for >4 hours
Pirfenidone (mg/mL) >60° C., assay content after stepwise cooling to 25° C. [4, 9]: 54.6 mg/mL
Pirfenidone (mg/mL) >Re-crystal, assay content after stepwise cooling to 25° C. and later re-crystallization [4, 9]: 18.6 mg/mL
Observations: dissolution after overnight at 60° C. [4, 10]: Fully dissolved after overnight at
Observations: time stable at 25° C. before re-crystallization [4, 10]: 60 °C Stable at 25 °C for >4 hours
Pirfenidone (mg/mL) >60° C., assay content after stepwise cooling to 25° C. [4, 10]: 52.8 mg/mL
Pirfenidone (mg/mL) >Re-crystal, assay content after stepwise cooling to 25° C. and later re-crystallization [4, 10]: 22.3 mg/mL
Observations: dissolution after overnight at 60° C. [4, 11]: Fully dissolved after overnight at
Observations: time stable at 25° C. before re-crystallization [4, 11]: 60 °C Stable at 25 °C for >4 hours
Pirfenidone (mg/mL) >60° C., assay content after stepwise cooling to 25° C. [4, 11]: 50.7 mg/mL
Pirfenidone (mg/mL) >Re-crystal, assay content after stepwise cooling to 25° C. and later re-crystallization [4, 11]: 22.4 mg/mL
Observations: dissolution after overnight at 60° C. [4, 12]: Fully dissolved after overnight at
Observations: time stable at 25° C. before re-crystallization [4, 12]: 60 °C Stable at 25 °C for >4 hours
Pirfenidone (mg/mL) >60° C., assay content after stepwise cooling to 25° C. [4, 12]: 50.34 mg/mL
Pirfenidone (mg/mL) >Re-crystal, assay content after stepwise cooling to 25° C. and later re-crystallization [4, 12]: 27.6 mg/mL
Observations: dissolution after overnight at 60° C. [4, 13]: Fully dissolved after overnight at
Observations: time stable at 25° C. before re-crystallization [4, 13]: 60 °C Stable at 25 °C for >4 hours
Pirfenidone (mg/mL) >60° C., assay content after stepwise cooling to 25° C. [4, 13]: 51.8 mg/mL
